# From ChEMBL document CHEMBL5647688, “Mitogen-activated protein kinase (MEK/ERK) inhibition sensitizes cancer cells to centromere-associated protein E inhibition” (Int J Cancer, 2013)
# How the values were obtained:
# Format in all cases: functional
# [1] = tested on: NB-1691; test: Synergistic cytotoxicity against human NB-1691 cells assessed as combination index at ED 75 measured after 72 hrs in presence of temozolomide and SN-38 by Cell-titer Glo reagent assay
# [2] = tested on: NB-1691; test: Synergistic cytotoxicity against human NB-1691 cells assessed as combination index at ED 75 measured after 72 hrs in presence of temozolomide by Cell-titer Glo reagent assay
# [3] = tested on: NB-1691; test: Synergistic cytotoxicity against human NB-1691 cells assessed as combination index at ED 75 measured after 72 hrs in presence of SN-38 by Cell-titer Glo reagent assay
# [4] = tested on: NB-1691; test: Synergistic cytotoxicity against human NB-1691 cells assessed as combination index at ED 50 measured after 72 hrs in presence of temozolomide and SN-38 by Cell-titer Glo reagent assay
# [5] = tested on: SK-N-FI; test: Synergistic cytotoxicity against human SK-N-FI cells assessed as combination index at ED 75 measured after 72 hrs in presence of temozolomide by Cell-titer Glo reagent assay
# [6] = tested on: NB-1691; test: Synergistic cytotoxicity against human NB-1691 cells assessed as combination index at ED 50 measured after 72 hrs in presence of concurrent treatment of […] inhibitor CI-1040 by Cell-titer Glo reagent assay
# [7] = tested on: SK-N-FI; test: Synergistic cytotoxicity against human SK-N-FI cells assessed as combination index at ED 50 measured after 72 hrs in presence of concurrent treatment of […] inhibitor CI-1040 by Cell-titer Glo reagent assay
# [8] = tested on: SK-N-FI; test: Synergistic cytotoxicity against human SK-N-FI cells assessed as combination index at ED 75 measured after 72 hrs in presence of sequential treatment of […] inhibitor CI-1040 by Cell-titer Glo reagent assay
# [9] = tested on: NCI-H2030; test: Synergistic cytotoxicity against human NCI-H2030 cells expressing KRAS mutant assessed as combination index at ED 50 measured after 72 hrs in presence of MEK inhibitor GSK1120212 by Cell-titer Glo reagent assay
# [10] = tested on: NCI-H2228; test: Synergistic cytotoxicity against human NCI-H2228 cells assessed as combination index at ED 50 measured after 72 hrs in presence of MEK inhibitor GSK1120212 by Cell-titer Glo reagent assay
# [11] = tested on: NCI-H2170; test: Synergistic cytotoxicity against human NCI-H2170 cells assessed as combination index at ED 50 measured after 72 hrs in presence of MEK inhibitor GSK1120212 by Cell-titer Glo reagent assay
# [12] = tested on: NCI-H1299; test: Synergistic cytotoxicity against human NCI-H1299 cells expressing NRAS mutant assessed as combination index at ED 50 measured after 72 hrs in presence of MEK inhibitor GSK1120212 by Cell-titer Glo reagent assay
# [13] = tested on: NCI-H1563; test: Synergistic cytotoxicity against human NCI-H1563 cells assessed as combination index at ED 50 measured after 72 hrs in presence of MEK inhibitor GSK1120212 by Cell-titer Glo reagent assay
# [14] = tested on: NCI-H358; test: Synergistic cytotoxicity against human NCI-H358 cells expressing KRAS mutant assessed as combination index at ED 50 measured after 72 hrs in presence of MEK inhibitor GSK1120212 by Cell-titer Glo reagent assay
# [15] = tested on: NCI-H1792; test: Synergistic cytotoxicity against human NCI-H1792 cells expressing KRAS mutant assessed as combination index at ED 50 measured after 72 hrs in presence of MEK inhibitor GSK1120212 by Cell-titer Glo reagent assay
# [16] = tested on: Calu-6; test: Synergistic cytotoxicity against human Calu-6 cells expressing KRAS mutant assessed as combination index at ED 50 measured after 72 hrs in presence of MEK inhibitor GSK1120212 by Cell-titer Glo reagent assay
# [17] = tested on: CAPAN-1; test: Synergistic cytotoxicity against human CAPAN-1 cells expressing KRAS mutant assessed as combination index at ED 50 measured after 72 hrs in presence of MEK inhibitor GSK1120212 by Cell-titer Glo reagent assay
# [18] = tested on: SW1990; test: Synergistic cytotoxicity against human SW1990 cells expressing KRAS mutant assessed as combination index at ED 50 measured after 72 hrs in presence of MEK inhibitor GSK1120212 by Cell-titer Glo reagent assay
# [19] = tested on: Capan-2; test: Synergistic cytotoxicity against human Capan-2 cells expressing KRAS mutant assessed as combination index at ED 50 measured after 72 hrs in presence of MEK inhibitor GSK1120212 by Cell-titer Glo reagent assay
# [20] = tested on: YAPC; test: Synergistic cytotoxicity against human […] cells expressing KRAS mutant assessed as combination index at ED 50 measured after 72 hrs in presence of MEK inhibitor GSK1120212 by Cell-titer Glo reagent assay
# [21] = tested on: SW-620; test: Synergistic cytotoxicity against human SW620 cells expressing KRAS mutant assessed as combination index at ED 50 measured after 72 hrs in presence of MEK inhibitor GSK1120212 by Cell-titer Glo reagent assay
# [22] = tested on: HCT-116; test: Synergistic cytotoxicity against human HCT-116 cells expressing KRAS mutant assessed as combination index at ED 50 measured after 72 hrs in presence of MEK inhibitor GSK1120212 by Cell-titer Glo reagent assay
# [23] = tested on: NCI-H1299; test: Synergistic cytotoxicity against human NCI-H1299 cells expressing NRAS mutant assessed as combination index at ED75 measured after 72 hrs in presence of MEK inhibitor GSK1120212 by Cell-titer Glo reagent assay
# [24] = tested on: CAPAN-1; test: Synergistic cytotoxicity against human CAPAN-1 cells expressing KRAS mutant assessed as combination index at ED75 measured after 72 hrs in presence of MEK inhibitor GSK1120212 by Cell-titer Glo reagent assay
# [25] = tested on: SW1990; test: Synergistic cytotoxicity against human SW1990 cells expressing KRAS mutant assessed as combination index at ED75 measured after 72 hrs in presence of MEK inhibitor GSK1120212 by Cell-titer Glo reagent assay
# [26] = tested on: MIA PaCa-2; test: Synergistic cytotoxicity against human MIA PaCa-2 cells expressing KRAS mutant assessed as combination index at ED75 measured after 72 hrs in presence of MEK inhibitor GSK1120212 by Cell-titer Glo reagent assay
# [27] = tested on: ASPC1; test: Synergistic cytotoxicity against human ASPC1 cells expressing KRAS mutant assessed as combination index at ED75 measured after 72 hrs in presence of MEK inhibitor GSK1120212 by Cell-titer Glo reagent assay
# [28] = tested on: HPAF-II; test: Synergistic cytotoxicity against human HPAF-II cells expressing KRAS mutant assessed as combination index at ED75 measured after 72 hrs in presence of MEK inhibitor GSK1120212 by Cell-titer Glo reagent assay
# [29] = tested on: RKO; test: Synergistic cytotoxicity against human RKO cells expressing BRAF mutant assessed as combination index at ED75 measured after 72 hrs in presence of MEK inhibitor GSK1120212 by Cell-titer Glo reagent assay
# [30] = tested on: SW-620; test: Synergistic cytotoxicity against human SW620 cells expressing KRAS mutant assessed as combination index at ED75 measured after 72 hrs in presence of MEK inhibitor GSK1120212 by Cell-titer Glo reagent assay
smiles,measurement,setting,value
CC(C)Oc1ccc(C(=O)N[C@H](CNC(=O)CN(C)C)Cc2ccc(-c3cn4cccc([C@H](C)O)c4n3)cc2)cc1Cl [GSK-923295A],CI,[1],0.3
same,CI,[2],0.241
same,CI,[3],0.886
same,CI,[4],0.049
same,CI,[5],0.94
same,CI,[6],0.256
same,CI,[7],0.643
same,CI,[8],0.757
same,CI,[9],0.308
same,CI,[10],0.317
same,CI,[11],0.37
same,CI,[12],0.382
same,CI,[13],0.405
same,CI,[14],0.416
same,CI,[15],0.484
same,CI,[16],0.556
same,CI,[17],0.053
same,CI,[18],0.176
same,CI,[19],0.298
same,CI,[20],0.659
same,CI,[21],0.521
same,CI,[22],0.695
same,CI,[23],0.511
same,CI,[24],0.091
same,CI,[25],0.103
same,CI,[26],0.311
same,CI,[27],0.323
same,CI,[28],0.473
same,CI,[29],0.206
same,CI,[30],0.289
